Experimental data as given in article PMC3618506 (Nature, 2013).

B1: Strep-tagged full-length Fbxl3 (natural protein)
chain: MKRGGRDSDRNSSEEGTAEKSKKLRTTNEHSQTCDWGNLLQDIILQVFKYLPLLDRAHASQVCRNWNQVFHMPDLWRCFEFELNQPATSYLKATHPELIKQIIKRHSNHLQYVSFKVDSSKESAEAACDILSQLVNCSLKTLGLISTARPSFMDLPKSHFISALTVVFVNSKSLSSLKIDDTPVDDPSLKVLVANNSDTLKLLKMSSCPHVSPAGILCVADQCHGLRELALNYHLLSDELLLALSSEKHVRLEHLRIDVVSENPGQTHFHTIQKSSWDAFIRHSPKVNLVMYFFLYEEEFDPFFRYEIPATHLYFGRSVSKDVLGRVGMTCPRLVELVVCANGLRPLDEELIRIAERCKNLSAIGLGECEVSCSAFVEFVKMCGGRLSQLSIMEEVLIPDQKYSLEQIHWEVSKHLGRVWFPDMMPTW

Key:
mCRY2-PHR = biological target: T1, mCRY2-PHR (Mus musculus, UniProt Q9R194); assay: quenching of FAD fluorescence; type: binding
T1 sequence (Q9R194 1-512): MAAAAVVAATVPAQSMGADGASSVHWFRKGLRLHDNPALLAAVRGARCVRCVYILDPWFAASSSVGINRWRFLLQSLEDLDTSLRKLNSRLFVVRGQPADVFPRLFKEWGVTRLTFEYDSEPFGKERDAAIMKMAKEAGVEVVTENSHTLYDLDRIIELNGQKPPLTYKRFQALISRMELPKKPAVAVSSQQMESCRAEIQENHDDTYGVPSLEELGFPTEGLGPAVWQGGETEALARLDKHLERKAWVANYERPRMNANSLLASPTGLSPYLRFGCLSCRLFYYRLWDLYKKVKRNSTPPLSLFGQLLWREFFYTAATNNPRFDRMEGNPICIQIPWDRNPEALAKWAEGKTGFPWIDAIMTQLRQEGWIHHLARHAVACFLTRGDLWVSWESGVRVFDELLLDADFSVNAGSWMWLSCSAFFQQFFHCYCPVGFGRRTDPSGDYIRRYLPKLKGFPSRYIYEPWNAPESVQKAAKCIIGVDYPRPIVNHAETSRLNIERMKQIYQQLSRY

GST-tagged mCRY2 (1-544) = biological target: T2, GST-tagged mCRY2 (1-544) (mouse, UniProt Q9R194 1-544); assay: pull-down
T2 sequence: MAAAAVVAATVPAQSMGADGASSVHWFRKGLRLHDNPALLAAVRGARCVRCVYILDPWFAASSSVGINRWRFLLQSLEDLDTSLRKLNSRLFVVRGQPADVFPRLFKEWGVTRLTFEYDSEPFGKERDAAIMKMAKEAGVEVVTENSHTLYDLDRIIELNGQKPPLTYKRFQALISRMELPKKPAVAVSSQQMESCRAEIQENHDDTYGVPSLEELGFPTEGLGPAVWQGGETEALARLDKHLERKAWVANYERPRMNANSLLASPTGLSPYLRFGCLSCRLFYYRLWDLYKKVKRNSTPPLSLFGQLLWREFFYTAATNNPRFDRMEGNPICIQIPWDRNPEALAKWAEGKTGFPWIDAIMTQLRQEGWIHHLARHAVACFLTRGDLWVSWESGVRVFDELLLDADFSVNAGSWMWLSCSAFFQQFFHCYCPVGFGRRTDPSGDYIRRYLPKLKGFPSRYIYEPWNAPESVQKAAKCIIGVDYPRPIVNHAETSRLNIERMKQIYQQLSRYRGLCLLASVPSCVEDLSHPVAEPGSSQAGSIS

Row | Molecule | Kd (mCRY2-PHR) [µM] | binding result (GST-tagged mCRY2 (1-544))
1 | Cc1cc2nc3c(=O)[nH]c(=O)nc-3n(C[C@H](O)[C@H](O)[C@H](O)COP(=O)(O)OP(=O)(O)OC[C@H]3O[C@@H](n4cnc5c(N)ncnc54)[C@H](O)[C@@H]3O)c2cc1C [FAD] | ~40 | –
2 | B1 | – | binds
